“And” between values parts separate entries of the source, which are not always exact repeats. Equal entries are not always repeated.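 These data come from cells grown in 96-well plates and exposed to compound for 48 hours at five concentrations. Abbreviation: GI50, concentration required for 50% inhibition of growth. Definition used: TGI = concentration required for complete inhibition of growth.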
Columns and labels:
Assay in all cases: DTP human tumour cell line panel, 48 h
MDA-MB-435 = tested on: MDA-MB-435
M19-MEL melanoma = tested on: M19-MEL melanoma
XF 498 CNS = tested on: XF 498 CNS
LXFL 529 NSCLC = tested on: LXFL 529 NSCLC
DLD-1 colon = tested on: DLD-1 colon
KM20L2 colon = tested on: KM20L2 colon
MDA-N = tested on: MDA-N
HOP-18 NSCLC = tested on: HOP-18 NSCLC
RXF-631 renal = tested on: RXF-631 renal

For `CC1=C[C@H]2c3c(c(O)c(O)c4oc5cc(O)cc(O)c5c(=O)c34)[C@H](c3cc(O)c(O)c4oc5cc(O)cc(O)c5c(=O)c34)[C@H]2C(C)(C)C1`, the GI50 (MDA-MB-435) was 0.962 µM and 1.29 µM and the TGI (MDA-MB-435) was 2.67 µM and 3.12 µM.

`CCOC(=O)CNC(SC)=C(C#N)C#N` showed a TGI (M19-MEL melanoma) greater than 100 µM, a TGI (XF 498 CNS) greater than 100 µM and a TGI (LXFL 529 NSCLC) greater than 100 µM. The TGI (DLD-1 colon) was greater than 100 µM and the TGI (KM20L2 colon) was greater than 100 µM.

In the case of `CC1(C)CCc2cc3c(cc2O1)OC(C)(C)C1c2c(ccc4c2CCC(C)(C)O4)OC31` (stereo not given), the TGI (M19-MEL melanoma) is reported as greater than 100 µM, the TGI (XF 498 CNS) is reported as greater than 100 µM and the TGI (LXFL 529 NSCLC) is reported as greater than 100 µM. For the same molecule, the TGI (DLD-1 colon) was greater than 100 µM.

`Cc1cc(C)cc(Nc2nccc(-c3c(-c4ccc(F)cc4)ncn3C3CCNCC3)n2)c1` was tested, and the GI50 (MDA-MB-435) was 0.767 µM and the TGI (MDA-MB-435) was 2.09 µM.

`COc1ccc(S(=O)(=O)O)cc1NS(=O)(=O)c1ccc(C)cc1` gave a TGI (MDA-MB-435) greater than 100 µM and a TGI (MDA-N) greater than 100 µM.

For `COc1cc(C/C=C/c2ccccc2)c(OC)cc1O`, the TGI (MDA-MB-435) was 36.9 µM and the TGI (MDA-N) was 33.8 µM.

Work on `Cn1cc2ccccc2c1-c1nc(F)nc(Oc2ccc3c(c2)CC[C@@H]2C3CC[C@]3(C)C(O)CCC23)n1` (stereo not given in full) yielded a TGI (M19-MEL melanoma) of 47.8 µM, a TGI (LXFL 529 NSCLC) of 31.6 µM and a TGI (DLD-1 colon) of 30.9 µM. For the same molecule, the TGI (HOP-18 NSCLC) was 35.7 µM and the TGI (KM20L2 colon) was 36.9 µM.

For `CCC[CH2][Sn]1([CH2]CCC)[O]C(=O)C[S]1`, the GI50 (M19-MEL melanoma) was 1.9 µM, the TGI (M19-MEL melanoma) was 7.75 µM and the GI50 (XF 498 CNS) was 1.41 µM. The TGI (XF 498 CNS) was 2.74 µM, the GI50 (LXFL 529 NSCLC) was 0.312 µM and the TGI (LXFL 529 NSCLC) was 1.55 µM. The GI50 (DLD-1 colon) was 1.29 µM, the TGI (DLD-1 colon) was 2.78 µM and the GI50 (RXF-631 renal) was 0.85 µM. It also gave a TGI (RXF-631 renal) of 5.05 µM, a GI50 (HOP-18 NSCLC) of 1.57 µM and a TGI (HOP-18 NSCLC) of 2.91 µM. The GI50 (KM20L2 colon) was 4.06 µM and the TGI (KM20L2 colon) was 15.9 µM.

Molecule `COc1cc(C(=O)/C=C/c2c(-c3ccc(F)cc3)nc3sccn23)cc(OC)c1OC` has a GI50 (MDA-MB-435) of 2.13 µM and a TGI (MDA-MB-435) of 7.92 µM.

For `CC(C)C(/C=C/c1ccccc1)=N\NC(=O)N/N=C(/C=C/c1ccccc1)C(C)C`, the TGI (M19-MEL melanoma) was 76.9 µM, the TGI (XF 498 CNS) was 77.4 µM and the TGI (LXFL 529 NSCLC) was 75.3 µM. For the same molecule, the TGI (DLD-1 colon) was greater than 100 µM and the TGI (KM20L2 colon) was 93.6 µM.

Molecule `C/C1=C\CC[C@@](C)(O)[C@H]2C[C@H](CC/C(C)=C/CC1)C1(CC1)C(=O)O2` has a GI50 (MDA-MB-435) of 25.4 µM and a TGI (MDA-MB-435) of 79.1 µM.

`O=C(c1ccc(O)cc1)c1ccc(C(=O)c2ccc(O)cc2)cc1` was tested, and the GI50 (MDA-MB-435) was greater than 100 µM and the TGI (MDA-MB-435) was greater than 100 µM.

Molecule `COc1ccc(CNc2nc3ccccc3nc2-c2cccs2)cc1OC` has a TGI (M19-MEL melanoma) greater than 100 µM, a TGI (XF 498 CNS) of 59.6 µM and a TGI (LXFL 529 NSCLC) greater than 100 µM. It also gave a TGI (RXF-631 renal) greater than 100 µM, a TGI (HOP-18 NSCLC) greater than 100 µM and a TGI (KM20L2 colon) greater than 100 µM.

Work on `O=C1C2Cc3ccccc3CN2C(=O)N1CN1CCN(CN2C(=O)C3Cc4ccccc4CN3C2=O)CC1` (stereo not given) yielded a TGI (M19-MEL melanoma) greater than 100 µM, a TGI (DLD-1 colon) greater than 100 µM and a TGI (RXF-631 renal) greater than 100 µM. The TGI (HOP-18 NSCLC) was greater than 100 µM and the TGI (KM20L2 colon) was greater than 100 µM.

`CC(=O)Nc1ccc(-c2nnc(SCC(=O)Nc3ccccc3[N+](=O)[O-])o2)cc1` gave a TGI (M19-MEL melanoma) greater than 100 µM, a TGI (LXFL 529 NSCLC) greater than 100 µM and a TGI (DLD-1 colon) greater than 100 µM. It also gave a TGI (HOP-18 NSCLC) greater than 100 µM and a TGI (KM20L2 colon) greater than 100 µM.

With `COc1cc2c(cc1OCCCCC(=O)Nc1ccc(-c3nc4ccccc4s3)cc1)N=C[C@@H]1CCCN1C2=O` the GI50 (MDA-MB-435) was 1.76 µM and the TGI (MDA-MB-435) was 3.45 µM.

With `CC(=O)OC1CCC2(C)C(CCC3C2CCC2(C)C(C4=CC(=O)OC4)CCC32)C1` (stereo not given) the GI50 (MDA-MB-435) was 4.2 µM and the TGI (MDA-MB-435) was 33.5 µM.

`O=C1c2cnccc2Cc2cccc3c2N1c1ccccc1S3` was tested, and the TGI (M19-MEL melanoma) was 86.7 µM, the TGI (XF 498 CNS) was 32.6 µM and the TGI (LXFL 529 NSCLC) was greater than 100 µM. For the same molecule, the TGI (DLD-1 colon) was greater than 100 µM, the TGI (RXF-631 renal) was greater than 100 µM and the TGI (KM20L2 colon) was 34.8 µM.

With `Cc1sc2nc(-c3ccccn3)c(/C=N/N=C(N)N)n2c1C` the GI50 (MDA-MB-435) was 4.53 µM and the TGI (MDA-MB-435) was 10.1 µM.

`CC(C)O/C=C1\C(=O)C2(SCCS2)[C@H]2CCCC[C@@H]12` was tested, and the TGI (M19-MEL melanoma) was greater than 100 µM, the TGI (LXFL 529 NSCLC) was greater than 100 µM and the TGI (DLD-1 colon) was greater than 100 µM. The TGI (RXF-631 renal) was greater than 100 µM, the TGI (HOP-18 NSCLC) was greater than 100 µM and the TGI (KM20L2 colon) was greater than 100 µM.

`CN(C)CCCNC(=O)c1cc2c3ccccc3[nH]c2c2ncccc12` gave a GI50 (MDA-MB-435) of 11.1 µM and a TGI (MDA-MB-435) of 23.4 µM.

Work on `NC1=CC(=O)C(=O)c2cccnc21` yielded a GI50 (MDA-MB-435) of 1.74 µM and a TGI (MDA-MB-435) of 3.17 µM.

`Cn1cc(-c2csc(-c3cn(CCN4CCOCC4)c4ccc(F)cc34)n2)c2cccnc21` gave a GI50 (MDA-MB-435) of 2.77 µM and a TGI (MDA-MB-435) of 10.5 µM.

In the case of `Cc1cc[c-]cc1.Fc1c[c-]c(-c2ccccn2)c(F)c1.N#CCC[PH+](CCC#N)c1ccccc1.[Pt+2]`, the GI50 (MDA-MB-435) is reported as 2.47 µM and the TGI (MDA-MB-435) is reported as 6.75 µM.

Work on `COc1cc2ccc(CC#N)cc2cc1OC` yielded a TGI (M19-MEL melanoma) greater than 100 µM, a TGI (XF 498 CNS) greater than 100 µM and a TGI (LXFL 529 NSCLC) greater than 100 µM. For the same molecule, the TGI (DLD-1 colon) was greater than 100 µM, the TGI (RXF-631 renal) was greater than 100 µM and the TGI (KM20L2 colon) was greater than 100 µM.

Work on `O=C1c2c(c3c4ccccc4n4c3c3c2c2ccccc2n3C/C=C\C4)C(=O)N1Cc1ccccc1` yielded a TGI (M19-MEL melanoma) greater than 100 µM, a TGI (XF 498 CNS) of 85.9 µM and a TGI (LXFL 529 NSCLC) greater than 100 µM. For the same molecule, the TGI (DLD-1 colon) was greater than 100 µM, the TGI (HOP-18 NSCLC) was greater than 100 µM and the TGI (KM20L2 colon) was greater than 100 µM.

`COc1ccc(-c2nnc3n(C)c(=O)c4ccccc4n23)cc1O` gave a GI50 (MDA-MB-435) of 0.065 µM and a TGI (MDA-MB-435) of 0.221 µM.

`O=C(N/C(=C\c1ccc([N+](=O)[O-])cc1)c1nc2[nH]c(=S)[nH]c(=O)c2[nH]1)c1ccccc1` gave a TGI (M19-MEL melanoma) greater than 100 µM, a TGI (XF 498 CNS) greater than 100 µM and a TGI (LXFL 529 NSCLC) greater than 100 µM. It also gave a TGI (DLD-1 colon) greater than 100 µM and a TGI (KM20L2 colon) greater than 100 µM.

With `O=C1Cc2ccccc2N1/N=C\c1ccc(O)cc1` the TGI (M19-MEL melanoma) was greater than 100 µM, the TGI (XF 498 CNS) was greater than 100 µM and the TGI (RXF-631 renal) was greater than 100 µM. For the same molecule, the TGI (HOP-18 NSCLC) was greater than 100 µM and the TGI (KM20L2 colon) was greater than 100 µM.

For `COC1=NN2C(OC)(c3ccccc3)c3c(-c4ccccc4)sc(-c4ccccc4)c3C2(c2ccccc2)S1` (stereo not given), the TGI (XF 498 CNS) was greater than 100 µM, the TGI (LXFL 529 NSCLC) was greater than 100 µM and the TGI (DLD-1 colon) was greater than 100 µM. For the same molecule, the TGI (RXF-631 renal) was greater than 100 µM.

For `CC1SC2=NC3=C(c4ccccc4C3=O)C(c3ccc(Br)cc3)N2C1=O` (stereo not given), the TGI (M19-MEL melanoma) was greater than 100 µM, the TGI (XF 498 CNS) was greater than 100 µM and the TGI (LXFL 529 NSCLC) was greater than 100 µM. It also gave a TGI (DLD-1 colon) greater than 100 µM and a TGI (KM20L2 colon) greater than 100 µM.

Work on `CCOC(=O)c1c(-c2[nH]c(C(=O)OCc3ccccc3)c(C)c2C(=O)OCC)[nH]c(C(=O)OCc2ccccc2)c1C` yielded a TGI (M19-MEL melanoma) greater than 100 µM, a TGI (LXFL 529 NSCLC) greater than 100 µM and a TGI (DLD-1 colon) greater than 100 µM. It also gave a TGI (HOP-18 NSCLC) greater than 100 µM and a TGI (KM20L2 colon) greater than 100 µM.

`NNC(=O)CC(=O)Nc1ccccc1F` showed a TGI (M19-MEL melanoma) greater than 100 µM, a TGI (LXFL 529 NSCLC) greater than 100 µM and a TGI (DLD-1 colon) greater than 100 µM. It also gave a TGI (RXF-631 renal) greater than 100 µM, a TGI (HOP-18 NSCLC) greater than 100 µM and a TGI (KM20L2 colon) greater than 100 µM.

With `O=C1C[C@@H](c2ccccc2)NCCCCN(O)CCCN1` the TGI (MDA-MB-435) was greater than 100 µM and the TGI (MDA-N) was greater than 100 µM.

Source: PubChem BioAssay (NCI)
